Test results: ChEMBL document CHEMBL5131411, “Evaluation of amentoflavone metabolites on PARP-1 inhibition and the potentiation on anti-proliferative effects of carboplatin in A549 cells” (Bioorg Med Chem Lett, 2022)
The source made the active and inactive calls. No cut-off for these calls is given here.

Assays:
A549 [1] = assay: Potentiation of carboplatin induced antiproliferative activity against human A549 cells assessed as increase in apoptotic cells at 10 uM by Hoechst staining based assay; assay type: functional, cell-based
[2] = target: Poly [ADP-ribose] polymerase 1 (Homo sapiens, UniProt P09874); assay: Inhibition of PARP1 (unknown origin)
A549 [3] = assay: Potentiation of carboplatin induced antiproliferative activity against human A549 cells assessed as reduction in cell viability at 10 uM by MTT assay; assay type: functional, cell-based
A549 [4] = assay: Potentiation of carboplatin induced antiproliferative activity against human A549 cells assessed as increase in apoptotic cells at 10 uM by Annexin V-PI double staining based flow cytometric analysis; assay type: functional, cell-based
A549 [5] = assay: Potentiation of carboplatin induced antiproliferative activity against human A549 cells assessed as reduction in cell viability at 0.1 to 10 uM by MTT assay; assay type: functional, cell-based; settings: dose 0.1-10 µM
A549 [6] = assay: Potentiation of carboplatin induced antiproliferative activity against human A549 cells assessed as increase in apoptotic cells at 0.1 to 10 uM by Hoechst staining based assay; assay type: functional, cell-based; settings: dose 0.1-10 µM
A549 [7] = assay: Potentiation of carboplatin induced antiproliferative activity against human A549 cells assessed as increase in apoptotic cells at 0.1 to 10 uM by Annexin V-PI double staining based flow cytometric analysis; assay type: functional, cell-based; settings: dose 0.1-10 µM

Chain of Poly [ADP-ribose] polymerase 1 (P09874 whole entry): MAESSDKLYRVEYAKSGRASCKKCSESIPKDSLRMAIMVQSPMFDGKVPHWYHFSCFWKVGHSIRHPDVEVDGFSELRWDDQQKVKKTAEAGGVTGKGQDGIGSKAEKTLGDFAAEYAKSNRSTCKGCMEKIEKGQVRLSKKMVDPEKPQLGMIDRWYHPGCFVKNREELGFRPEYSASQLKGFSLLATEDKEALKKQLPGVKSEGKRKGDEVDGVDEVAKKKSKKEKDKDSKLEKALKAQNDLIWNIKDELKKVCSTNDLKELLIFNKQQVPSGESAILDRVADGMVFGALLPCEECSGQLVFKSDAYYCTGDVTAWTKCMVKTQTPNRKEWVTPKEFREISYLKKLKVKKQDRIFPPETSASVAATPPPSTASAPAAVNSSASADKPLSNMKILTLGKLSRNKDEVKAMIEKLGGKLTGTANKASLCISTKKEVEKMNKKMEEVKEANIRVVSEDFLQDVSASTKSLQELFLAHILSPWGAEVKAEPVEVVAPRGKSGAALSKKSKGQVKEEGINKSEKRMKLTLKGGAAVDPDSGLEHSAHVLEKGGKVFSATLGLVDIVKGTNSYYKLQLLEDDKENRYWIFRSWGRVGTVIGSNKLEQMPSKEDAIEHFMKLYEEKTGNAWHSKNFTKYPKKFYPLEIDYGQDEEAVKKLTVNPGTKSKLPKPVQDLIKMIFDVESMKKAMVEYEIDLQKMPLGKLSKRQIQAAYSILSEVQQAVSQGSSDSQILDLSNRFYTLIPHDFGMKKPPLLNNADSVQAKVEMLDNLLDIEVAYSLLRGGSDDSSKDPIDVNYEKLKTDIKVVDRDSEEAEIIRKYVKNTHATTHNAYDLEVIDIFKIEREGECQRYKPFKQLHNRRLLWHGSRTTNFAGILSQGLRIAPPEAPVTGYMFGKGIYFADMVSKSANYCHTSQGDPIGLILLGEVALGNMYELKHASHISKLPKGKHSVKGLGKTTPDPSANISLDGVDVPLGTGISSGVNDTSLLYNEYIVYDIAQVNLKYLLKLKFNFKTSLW

IC50 [2]	IC50 ([2]; read-out: IC50)	Compound	Activity (A549 [1])	Activity (A549 [3])	Activity (A549 [4])	Activity (A549 [5])	Activity (A549 [6])	Activity (A549 [7])
0.1398 µg/mL	120 nM	O=c1cc(-c2ccc(O)c(-c3c(O)cc(O)c4c(=O)cc(-c5ccc(O)cc5)oc34)c2)oc2cc(O)cc(O)c12 [AMENTOFLAVONE]	Active	Active	Active			
	240 nM	O=c1c(O)c(-c2ccc(O)c(-c3c(O)cc(O)c4c(=O)cc(-c5ccc(OS(=O)(=O)O)cc5)oc34)c2)oc2cc(OS(=O)(=O)O)cc(O)c12						
0.0804 µg/mL	170 nM	O=c1cc(-c2ccc(O)c(-c3c(O)cc(O)c4c(=O)cc(-c5ccc(OS(=O)(=O)O)cc5)oc34)c2)oc2cc(O)cc(O)c12				Active	Active	Active
0.1158 µg/mL	510 nM	O=c1c(O)c(-c2ccc(O)c(-c3c(O)cc(O)c4c(=O)cc(-c5ccc(O)cc5)oc34)c2)oc2cc(OS(=O)(=O)O)cc(O)c12						
